The values that follow are results of earlier work, collected in patent publication US20190231795A1, “METHODS FOR TREATING CANCER AND PREDICTING DRUG RESPONSIVENESS IN CANCER PATIENTS” (LiPlasome Pharma ApS, priority 2018, published 2019).

The structures appear in SMILES notation.

The subject of data set [1] is DNA platinum adducts (GG-Pt) in tumor tissue. Particulars: comparison value.
Data set [2] concerns metastatic breast cancer.

With `N.N.[Cl][Pt][Cl]` [conventional cisplatin, cisplatin], the “increase of DNA-platinum (GG-Pt) in tumor tissue seen with conventional cisplatin” value in data set [1] is recorded as 4-6 fold. The response rate in data set [2] is 10%.
